Read-outs that look alike come from different tables or passages of the source.
Experiments:
[1] = test system: human retinal pigment epithelial (RPE) cells; conditions: added diurnally to RPE cell cultures for three consecutive days; cited from earlier work
N18-RE-105 hybrid cells = assay: Effect against glutamate-induced cytotoxicity (LDH release)
Experimental: We used ramelteon and metabolite 1 (as synthesized in Example 1) in this study. Idebenone and vitamine E (α-tocopherol) were purchased from Wako Pure Chemical Industries (Osaka, Japan) and used as positive control. All other chemicals were purchased from standard sources.
For cytotoxicity studies, cells were plated in 96-well plates at a density of 5,000 cells per well in 0.1 ml of the above medium. After culturing for 24 hr, the medium was removed and replaced with medium containing 10 mM glutamate with or without various concentrations of compounds. After 24 hours of incubation, cytotoxicity was quantitated by the release of the cytosolic enzyme lactate dehydrogenase (LDH) into the culture medium. The percentage of cell viability in the presence of each of the test compounds was calculated from the following formula: % cell viability in the presence of compound={LDH activity (absorbance at 550 nm) in the culture medium with compound plus 10 mM glutamate−LDH activity in the control culture medium/LDH activity in the culture medium with 10 mM glutamate−LDH activity in the control culture medium}×100.

[2] = test system: age-related macular degeneration; conditions: 3 mg daily at bedtime for at least three months; cited from earlier work
[3] = test system: melatonin MT1/MT2 receptors; conditions: cited from earlier work

## COc1ccc2[nH]cc(CCNC(C)=O)c2c1 [melatonin]
[1]
  H2O2-induced cell death and mitochondrial DNA damage: markedly reduced
N18-RE-105 hybrid cells
  effect on cytotoxicity induced by 10 mM glutamate / cell viability: did not affect cell viability
[2]
  visual acuity: remained stable

## CCC(=O)NCC[C@@H]1CCc2cc(O)c3c(c21)CCO3 [metabolite 1, (S)—N-(2-[4-hydroxy-1,6,7,8-tetrahydro-2H-indeno[5,4-b]furan-8-yl]ethyl)propionamide]
N18-RE-105 hybrid cells
  effect on cytotoxicity induced by 10 mM glutamate / cell viability: inhibited
N18-RE-105 hybrid cells; 10 mM glutamate treated cell culture, increasing amount, FIG. 2
  cell death (absorbance, LDH) with varying amounts of compound: cell death is reduced
N18-RE-105 hybrid cells; highest concentration, 10 mM glutamate, FIGS. 1 and 2
  toxicity of glutamate over the basal viability: completely prevented

## COC1=C(OC)C(=O)C(CCCCCCCCCCO)=C(C)C1=O [Idebenone]
N18-RE-105 hybrid cells
  effect on cytotoxicity induced by 10 mM glutamate / cell viability: cell viability was increased

## Cc1c(C)c2c(c(C)c1O)CC[C@@](C)(CCC[C@H](C)CCC[C@H](C)CCCC(C)C)O2 [tocopherol, α-tocopherol]
N18-RE-105 hybrid cells; 10 mM glutamate, 24 hours incubation, LDH release, FIG. 1
  effect on cytotoxicity induced by 10 mM glutamate / cell viability: cell viability was increased

## CCC(=O)NCC[C@@H]1CCc2ccc3c(c21)CCO3 [ramelteon, (S)—N-[2-(1,6,7,8-tetrahydro-2H-indeno[5,4-b]furan-8-yl)ethyl]propionamide]
N18-RE-105 hybrid cells
  effect on cytotoxicity induced by 10 mM glutamate / cell viability: did not affect cell viability
[3]
  affinity for melatonin MT1/MT2 receptors: high affinity

— patent US8785491B2, “Pharmaceutical compositions and methods for treating age-related macular degeneration with melatonin analogues” (Takeda Pharmaceuticals U.S.A., Inc., priority 2008, dated 2014)
